According to patent US9486465B2, “Attractant for bone marrow stem cells and method for attracting bone marrow stem cells” (PIAS CORPORATION, priority 2012, dated 2016):

Tested on: wound with full-thickness skin loss in genetically diabetic db/db mice
Experiment: Cell attraction test in vivo of mice: skin regeneration test (wound healing test)
Design: species or system mouse
Settings: 120 μg/mL or 40 μg/mL PBS solution, 20 μL per site dropwise onto wound surface, three times per week for four weeks, FIG. 4
Text: Cell Attraction Test In Vivo of Mice
In order to evaluate the performance of the attractant for bone marrow stem cells to attract bone marrow stem cells in vivo of mice, living mice were subjected to experiments as follows. When a living mouse is wounded, bone marrow stem cells can accumulate around the wound portion through the bloodstream. Then, the bone marrow stem cells that have accumulated around the wound portion secrete cytokine, or the bone marrow stem cells that have accumulated around the wound portion differentiate into cells of the wound portion, thereby allowing the wound to be healed. Accordingly, it is expected that application of the attractant for bone marrow stem cells to the wound portion causes the bone marrow stem cells to be attracted to the wound portion, thereby accelerating the healing of the wound.
Method of Skin Regeneration Test (Wound Healing Test) […]
A picture of the back was captured three times per week, for four weeks, and the image was loaded into a PC. Thus, the wound area was measured using an image analysis software (product name: Image J). Thereafter, the wound area was measured once a week until about 60 days from the wound creation.

Oc1cc(O)c2c(c1)O[C@@]1(c3ccc(O)c(O)c3)Oc3cc(O)c4c(c3[C@@H]2[C@H]1O)O[C@H](c1ccc(O)c(O)c1)[C@H](O)[C@H]4c1c(O)cc(O)c2c1O[C@H](c1ccc(O)c(O)c1)[C@H](O)C2 [cinnamtannin B1]
wound area measurement (healing of the wound): healing of the wound was accelerated
